Measured values as given in ChEMBL document CHEMBL1135558, “Chemical modification of reveromycin A and its biological activities” (Bioorg Med Chem Lett, 2002).
pIC50: −log10 of the molar value.

Legend:
[1] = molecular target: T1, Isoleucyl-tRNA synthetase (Rattus norvegicus, UniProt O35880); assay: Inhibitory concentration against Isoleucyl-tRNA synthetase (IleRS) activity
T1 sequence (O35880 whole entry): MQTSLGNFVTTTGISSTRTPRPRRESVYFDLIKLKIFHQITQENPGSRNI

NRK [2] = assay: Morphological reversion of srcts-NRK cells concentration at 100 ug/mL; assay type: functional, Rattus norvegicus
NRK [3] = assay: In vitro inhibition of protein synthesis in srcts-NRK cell at 1 ug/mL; assay type: functional; settings: Rattus norvegicus
NRK [4] = assay: Morphological reversion of src-transformed-NRK cells at 2 ug/mL; assay type: functional, Rattus norvegicus
NRK [5] = assay: Morphological reversion of src-transformed-NRK cells at 10 ug/mL; assay type: functional, Rattus norvegicus
NRK [6] = assay: Morphological reversion of src-transformed-NRK cells at 20 ug/mL; assay type: functional, Rattus norvegicus
NRK [7] = assay: Morphological reversion of src-transformed-NRK cells at 5 ug/mL; 20-50; assay type: functional, Rattus norvegicus
NRK [8] = assay: Morphological reversion of src-transformed-NRK cells at 50 ug/mL; assay type: functional
NRK [9] = assay: Morphological reversion of src-transformed-NRK cells at 5 ug/mL; assay type: functional, Rattus norvegicus
NRK [10] = assay: Morphological reversion of src-transformed-NRK cells at 1 ug/mL; assay type: functional, Rattus norvegicus
NRK [11] = assay: Morphological reversion of src-transformed-NRK cells at 0.1 ug/mL; assay type: functional, Rattus norvegicus
NRK [12] = assay: In vitro inhibition of protein synthesis in src-transformed-NRK cell at 1 ug/mL; assay type: functional; settings: Rattus norvegicus

Compound: CCCC[C@@]1(OC(=O)CCC(=O)OC)CC[C@]2(CC[C@H](C)[C@@H](C/C=C(C)/C=C/[C@H](O)[C@@H](C)/C=C/C(=O)OC)O2)O[C@H]1/C=C/C(C)=C/C(=O)OC
- pIC50 [1]: > 5.85
- Reversion (NRK [2]): <20%
- inhibition at 1 µg/mL (NRK [3]): < 20%

Compound: CCCC[C@@]1(OCSC)CC[C@]2(CC[C@H](C)[C@@H](C/C=C(C)/C=C/[C@H](O)[C@@H](C)/C=C/C(=O)O)O2)O[C@H]1/C=C/C(C)=C/C(=O)OC
- pIC50 [1]: > 5.80
- Reversion (NRK [2]): <20%
- inhibition at 1 µg/mL (NRK [3]): < 20%

Compound: CCCC[C@@]1(OC(=O)CCC(=O)O)CC[C@]2(CC[C@H](C)[C@@H](C/C=C(C)/C=C/[C@H](O)[C@@H](C)/C=C/C(=O)O)O2)O[C@H]1/C=C/C(C)=C/C(=O)O [REVEROMYCIN A]
- Reversion (NRK [4]): <20%
- Reversion (NRK [5]): 50%
- Reversion (NRK [6]): >80%
- pIC50 [1]: 8.71
- Reversion (NRK [2]): >80%
- inhibition at 1 µg/mL (NRK [3]): > 80%
- Reversion (NRK [7]): 20%
- Reversion (NRK [8]): >80%

Compound: CCCC[C@@]1(OC(=O)CCC(=O)OC)CC[C@]2(CC[C@H](C)[C@@H](C/C=C(C)/C=C/[C@H](O)[C@@H](C)/C=C/C(=O)OC)O2)O[C@H]1/C=C/C(C)=C/C(=O)O
- Reversion (NRK [9]): >80%
- Reversion (NRK [4]): >80%
- Reversion (NRK [10]): >80%
- Reversion (NRK [5]): >80%
- Reversion (NRK [11]): 20%
- pIC50 [1]: 5.84
- Reversion (NRK [2]): >80%
- inhibition at 1 µg/mL (NRK [3]): < 20%

Compound: CCCC[C@@]1(OC(=O)CCC(=O)O)CC[C@]2(CC[C@H](C)[C@@H](CCC(C)CC[C@H](O)[C@@H](C)CCC(=O)O)O2)O[C@H]1CCC(C)CC(=O)O (stereo partly drawn)
- pIC50 [1]: > 5.83
- Reversion (NRK [2]): <20%
- inhibition at 1 µg/mL (NRK [3]): < 20%

Compound: CCCC[C@]1([C@H](/C=C/C(C)=C/C(=O)O)OC(=O)CCC(=O)O)CC[C@]2(CC[C@H](C)[C@@H](C/C=C(C)/C=C/[C@H](O)[C@@H](C)/C=C/C(=O)O)O2)O1 [REVEROMYCIN B]
- pIC50 [1]: > 5.82
- Reversion (NRK [2]): <20%
- inhibition at 1 µg/mL (NRK [3]): < 20%

Compound: CCCC[C@@]1(O)CC[C@]2(CC[C@H](C)[C@@H](C/C=C(C)/C=C/[C@H](O)[C@@H](C)/C=C/C(=O)O)O2)O[C@H]1/C=C/C(C)=C/C(=O)O
- pIC50 [1]: 7.13
- Reversion (NRK [2]): <20%
- inhibition at 1 µg/mL (NRK [3]): > 80%

Compound: CCCC[C@]1([C@H](/C=C/C(C)=C/C(=O)O)OC)CC[C@]2(CC[C@H](C)[C@@H](C/C=C(C)/C=C/[C@H](O)[C@@H](C)/C=C/C(=O)O)O2)O1
- pIC50 [1]: > 5.76
- Reversion (NRK [2]): <20%
- inhibition at 1 µg/mL (NRK [3]): < 20%

Compound: CCCC[C@@]1(OCSC)CC[C@]2(CC[C@H](C)[C@@H](C/C=C(C)/C=C/[C@H](O)[C@@H](C)/C=C/C(=O)O)O2)O[C@H]1/C=C/C(C)=C/C(=O)O
- Reversion (NRK [5]): <20%
- pIC50 [1]: 6.45
- Reversion (NRK [2]): >80%
- inhibition at 1 µg/mL (NRK [3]): > 80%
- Reversion (NRK [8]): 50%

Compound: CCCC[C@]1([C@@H](O)/C=C/C(C)=C/C(=O)O)CC[C@]2(CC[C@H](C)[C@@H](C/C=C(C)/C=C/[C@H](O)[C@@H](C)/C=C/C(=O)O)O2)O1
- pIC50 [1]: > 5.75
- Reversion (NRK [2]): <20%
- inhibition at 1 µg/mL (NRK [3]): < 20%

Compound: CCCC[C@@]1(OC(=O)CCC(=O)O)CC[C@]2(CC[C@H](C)[C@@H](C/C=C(C)/C=C/[C@H](OC)[C@@H](C)/C=C/C(=O)O)O2)O[C@H]1/C=C/C(C)=C/C(=O)O
- pIC50 [1]: 6.61
- Reversion (NRK [2]): <20%
- inhibition at 1 µg/mL (NRK [3]): 50%

Compound: CCCC[C@@]1(OC(=O)CCC(=O)O)CC[C@]2(CC[C@H](C)[C@@H](C/C=C(C)/C=C/[C@H](OC(C)=O)[C@@H](C)/C=C/C(=O)O)O2)O[C@H]1/C=C/C(C)=C/C(=O)O
- Reversion (NRK [9]): <20%
- Reversion (NRK [5]): 50%
- Reversion (NRK [6]): >80%
- pIC50 [1]: > 5.85
- Reversion (NRK [2]): >80%
- Reversion (NRK [8]): >80%
- inhibition at 1 µg/mL (NRK [12]): < 20%

Compound: CCCC[C@@]1(OC)CC[C@]2(CC[C@H](C)[C@@H](C/C=C(C)/C=C/[C@H](O)[C@@H](C)/C=C/C(=O)O)O2)O[C@H]1/C=C/C(C)=C/C(=O)O
- Reversion (NRK [5]): 50%
- Reversion (NRK [6]): 50%
- pIC50 [1]: 7.35
- Reversion (NRK [2]): >80%
- inhibition at 1 µg/mL (NRK [3]): > 80%
- Reversion (NRK [8]): >80%
